Results published in patent publication US20260285855A1, “HETEROARYL DERIVATIVES AS DDRS INHIBITORS” (CHIESI FARMACEUTICI S.P.A., priority 2023, published 2026).

How the values were obtained:
DDR2 = biological target: T1, DDR2 (Homo sapiens, UniProt Q16832); assay: LanthaScreen Europium Kinase Binding assay, DDR2; details: 5 nM DDR2, 10 nM Kinase Tracer 178, 1 h at rt; Ki from IC50 by Cheng-Prusoff; read-out: Ki DDR2
T1 construct: purchased Life Technologies
T1 sequence (Q16832 22-855): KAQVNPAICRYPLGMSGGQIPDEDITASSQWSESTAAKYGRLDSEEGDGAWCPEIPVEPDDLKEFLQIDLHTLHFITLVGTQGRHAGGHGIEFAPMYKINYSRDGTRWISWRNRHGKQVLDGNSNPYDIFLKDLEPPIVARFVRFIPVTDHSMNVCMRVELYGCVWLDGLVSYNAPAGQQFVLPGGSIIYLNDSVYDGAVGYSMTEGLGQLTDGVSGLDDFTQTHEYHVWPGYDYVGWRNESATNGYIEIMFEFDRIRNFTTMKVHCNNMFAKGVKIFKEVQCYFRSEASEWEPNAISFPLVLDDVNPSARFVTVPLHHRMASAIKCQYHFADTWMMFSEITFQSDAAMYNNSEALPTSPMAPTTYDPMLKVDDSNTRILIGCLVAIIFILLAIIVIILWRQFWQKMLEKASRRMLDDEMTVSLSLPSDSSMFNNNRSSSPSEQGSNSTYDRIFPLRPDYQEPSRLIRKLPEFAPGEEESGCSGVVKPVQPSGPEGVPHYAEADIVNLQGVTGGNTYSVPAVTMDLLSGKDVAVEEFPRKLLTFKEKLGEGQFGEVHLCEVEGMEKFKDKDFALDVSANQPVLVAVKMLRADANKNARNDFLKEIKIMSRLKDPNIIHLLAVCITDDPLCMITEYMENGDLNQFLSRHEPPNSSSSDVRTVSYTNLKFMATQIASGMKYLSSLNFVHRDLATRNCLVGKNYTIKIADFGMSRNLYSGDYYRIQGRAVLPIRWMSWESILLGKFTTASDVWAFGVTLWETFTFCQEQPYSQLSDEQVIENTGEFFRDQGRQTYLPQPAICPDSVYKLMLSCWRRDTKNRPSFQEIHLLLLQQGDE
Protocol: (§1) DDR1 and DDR2 binding assays were performed using Life Technologies LanthaScreen™ Europium Kinase Binding assay. […] IC50 values were determined in GraphPad Prism 7.0 software, using 4 parameter model: log (inhibitor) vs. response. IC50 values were converted in Ki using the Cheng-Prusoff equation (Ki-IC50/(1+ [Tracer]/Kd).

DDR1 = biological target: T2, DDR1 (Homo sapiens, UniProt Q08345); assay: LanthaScreen Europium Kinase Binding assay, DDR1; details: 5 nM DDR1, 20 nM Kinase Tracer 178, 1 h at rt; Ki from IC50 by Cheng-Prusoff; read-out: Ki DDR1
T2 construct: purchased Carna Biosciences
Protocol: as §1

T2 sequence (Q08345 19-913): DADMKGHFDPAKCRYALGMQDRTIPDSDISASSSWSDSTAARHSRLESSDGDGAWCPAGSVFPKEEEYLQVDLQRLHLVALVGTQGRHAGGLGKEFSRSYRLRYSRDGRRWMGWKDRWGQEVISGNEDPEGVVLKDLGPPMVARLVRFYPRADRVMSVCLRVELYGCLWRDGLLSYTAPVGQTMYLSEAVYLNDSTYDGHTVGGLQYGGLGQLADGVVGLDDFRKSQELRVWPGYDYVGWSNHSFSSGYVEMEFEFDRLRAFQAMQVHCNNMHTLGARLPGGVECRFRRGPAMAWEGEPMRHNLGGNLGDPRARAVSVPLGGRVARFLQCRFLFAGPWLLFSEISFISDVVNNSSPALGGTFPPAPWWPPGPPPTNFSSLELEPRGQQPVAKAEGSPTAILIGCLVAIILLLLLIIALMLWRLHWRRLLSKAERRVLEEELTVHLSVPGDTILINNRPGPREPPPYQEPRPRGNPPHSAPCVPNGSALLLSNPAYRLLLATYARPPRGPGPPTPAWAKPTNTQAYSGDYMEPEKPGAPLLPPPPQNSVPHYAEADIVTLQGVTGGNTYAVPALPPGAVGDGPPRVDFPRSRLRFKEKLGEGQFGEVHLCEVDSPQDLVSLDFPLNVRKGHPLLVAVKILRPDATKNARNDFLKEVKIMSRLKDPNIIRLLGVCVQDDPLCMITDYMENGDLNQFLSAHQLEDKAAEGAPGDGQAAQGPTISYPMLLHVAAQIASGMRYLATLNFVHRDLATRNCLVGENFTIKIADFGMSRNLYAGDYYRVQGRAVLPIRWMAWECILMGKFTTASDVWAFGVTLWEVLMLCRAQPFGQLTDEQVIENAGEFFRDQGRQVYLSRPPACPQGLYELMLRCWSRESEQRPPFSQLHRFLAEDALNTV

Compound	Ki (DDR2)	Ki (DDR1)
Cn1ccn2ncc(C(=O)N3CC4(CC(NC(=O)Nc5cc(C6CC6)ccn5)C4)C3)c12 [Example 155, 1-(4-cyclopropylpyridin-2-yl)-3-(2-(1-methyl-1H-imidazo[1,2-b]pyrazole-7-carbonyl)-2-azaspiro[3.3]heptan-6-yl)urea]	5 to 25 nM	< 5 nM
CN(C(=O)Nc1cc(C2CC2)ccn1)C1CC2(C1)CN(C(=O)c1cnn3ccn(C)c13)C2 [Example 156, 3-(4-cyclopropylpyridin-2-yl)-1-methyl-1-(2-(1-methyl-1H-imidazo[1,2-b]pyrazole-7-carbonyl)-2-azaspiro[3.3]heptan-6-yl)urea]	5 to 25 nM	< 5 nM
CN(C(=O)Nc1cncc(C2CC2)c1)C1CC2(C1)CN(C(=O)c1cnn3ccn(C)c13)C2 [Example 157, 3-(5-cyclopropylpyridin-3-yl)-1-methyl-1-(2-(1-methyl-1H-imidazo[1,2-b]pyrazole-7-carbonyl)-2-azaspiro[3.3]heptan-6-yl)urea]	5 to 25 nM	< 5 nM
[2H]C([2H])([2H])N(C(=O)Nc1cccc(C(F)(F)F)c1)C1CC2(C1)CN(C(=O)c1cnn3ccn(C)c13)C2 [Example 158, 1-(methyl-d3)-1-(2-(1-methyl-1H-imidazo[1,2-b]pyrazole-7-carbonyl)-2-azaspiro[3.3]heptan-6-yl)-3-(3-(trifluoromethyl)phenyl)urea]	5 to 25 nM	< 5 nM
O=C(Nc1cncc(C(F)(F)F)c1)NC1CC2(C1)CN(C(=O)c1ccnc3[nH]ncc13)C2 [Example 159, 1-(2-(1H-pyrazolo[3,4-b]pyridine-4-carbonyl)-2-azaspiro[3.3]heptan-6-yl)-3-(5-(trifluoromethyl)pyridin-3-yl)urea]	5 to 25 nM	< 5 nM
Cn1ccc2ncnc(C(=O)N3CC4(CC(NC(=O)Nc5cccc(C(F)(F)F)c5)C4)C3)c21 [Example 160, 1-(2-(5-methyl-5H-pyrrolo[3,2-d]pyrimidine-4-carbonyl)-2-azaspiro[3.3]heptan-6-yl)-3-(3-(trifluoromethyl)phenyl)urea]	5 to 25 nM	5 to 25 nM
Cn1ccn2ncc(C(=O)N3CC4(CC(NC(=O)Nc5cccc(S(=O)(=O)C(F)(F)F)c5)C4)C3)c12 [Example 161, 1-(2-(1-methyl-1H-imidazo[1,2-b]pyrazole-7-carbonyl)-2-azaspiro[3.3]heptan-6-yl)-3-(3-((trifluoromethyl)sulfonyl)phenyl)urea]	5 to 25 nM	< 5 nM
O=C(Nc1ccc(C(F)(F)F)cn1)NC1CC2(C1)CN(c1cnc3[nH]ncc3c1)C2 [Example 163, 1-(2-(1H-pyrazolo[3,4-b]pyridin-5-yl)-2-azaspiro[3.3]heptan-6-yl)-3-(5-(trifluoromethyl)pyridin-2-yl)urea]	5 to 25 nM	5 to 25 nM
CN(C(=O)Nc1cc(C(F)F)ccn1)C1CC2(C1)CN(C(=O)c1cnn3ccn(C)c13)C2 [Example 164, 3-(4-(difluoromethyl)pyridin-2-yl)-1-methyl-1-(2-(1-methyl-1H-imidazo[1,2-b]pyrazole-7-carbonyl)-2-azaspiro[3.3]heptan-6-yl)urea]	25 to 100 nM	< 5 nM
Cc1ncc(C(F)(F)F)cc1NC(=O)NC1CC2(C1)CN(C(=O)c1cnn3ccsc13)C2 [Example 165, 1-(2-methyl-5-(trifluoromethyl)pyridin-3-yl)-3-(2-(pyrazolo[5,1-b]thiazole-7-carbonyl)-2-azaspiro[3.3]heptan-6-yl)urea]	5 to 25 nM	< 5 nM
O=C(Nc1cccc(C(F)(F)F)c1)NC1CC2(C1)CN(C(=O)c1cnn3ccn(CC4COC4)c13)C2 [Example 166, 1-(2-(1-(oxetan-3-ylmethyl)-1H-imidazo[1,2-b]pyrazole-7-carbonyl)-2-azaspiro[3.3]heptan-6-yl)-3-(3-(trifluoromethyl)phenyl)urea]	5 to 25 nM	< 5 nM
O=C(Nc1cccc(C(F)(F)F)c1)NC1CC2(C1)CN(C(=O)c1cnn3ccn(C4COC4)c13)C2 [Example 167, 1-(2-(1-(oxetan-3-yl)-1H-imidazo[1,2-b]pyrazole-7-carbonyl)-2-azaspiro[3.3]heptan-6-yl)-3-(3-(trifluoromethyl)phenyl)urea]	5 to 25 nM	< 5 nM
Cn1ccn2ncc(C(=O)N3CC4(CC(NC(=O)Nc5cc(C(F)(F)F)cc(C#N)n5)C4)C3)c12 [Example 168, 1-(6-cyano-4-(trifluoromethyl)pyridin-2-yl)-3-(2-(1-methyl-1H-imidazo[1,2-b]pyrazole-7-carbonyl)-2-azaspiro[3.3]heptan-6-yl)urea]	5 to 25 nM	< 5 nM
CN(C(=O)Nc1cncc(C(F)(F)F)c1)C1CC2(C1)CN(C(=O)c1cnn3ccn(C)c13)C2 [Example 169, 1-methyl-1-(2-(1-methyl-1H-imidazo[1,2-b]pyrazole-7-carbonyl)-2-azaspiro[3.3]heptan-6-yl)-3-(5-(trifluoromethyl)pyridin-3-yl)urea]	5 to 25 nM	< 5 nM
CN(C(=O)Nc1cc(C(F)(F)F)ncn1)C1CC2(C1)CN(C(=O)c1cnn3ccn(C)c13)C2 [Example 170, 1-methyl-1-(2-(1-methyl-1H-imidazo[1,2-b]pyrazole-7-carbonyl)-2-azaspiro[3.3]heptan-6-yl)-3-(6-(trifluoromethyl)pyrimidin-4-yl)urea]	> 100 nM	5 to 25 nM
Cc1ncc(C(F)(F)F)cc1NC(=O)NC1CC2(C1)CN(C(=O)c1cnn3ccn(C)c13)C2 [Example 171, 1-(2-(1-methyl-1H-imidazo[1,2-b]pyrazole-7-carbonyl)-2-azaspiro[3.3]heptan-6-yl)-3-(2-methyl-5-(trifluoromethyl)pyridin-3-yl)urea]	5 to 25 nM	< 5 nM

The next lines start with the values.

Ki (DDR2)	Ki (DDR1)	Compound
< 5 nM	< 5 nM	O=C(Nc1cccc(C(F)(F)F)c1)OC1CC2(C1)CN(C(=O)c1cnn3ccsc13)C2 [Example 147, 2-(pyrazolo[5,1-b]thiazole-7-carbonyl)-2-azaspiro[3.3]heptan-6-yl(3-(trifluoromethyl)phenyl)carbamate]
< 5 nM	< 5 nM	O=C(Nc1cccc(C(F)(F)F)c1)NC1CC2(C1)CN(c1nccn3cncc13)C2 [Example 149, 1-(2-(imidazo[1,5-a]pyrazin-8-yl)-2-azaspiro[3.3]heptan-6-yl)-3-(3-(trifluoromethyl)phenyl)urea]
5 to 25 nM	< 5 nM	CN(C(=O)Nc1cc(CC(F)(F)F)ccn1)C1CC2(C1)CN(C(=O)c1cnn3ccn(C)c13)C2 [Example 150, 1-methyl-1-(2-(1-methyl-1H-imidazo[1,2-b]pyrazole-7-carbonyl)-2-azaspiro[3.3]heptan-6-yl)-3-(4-(2,2,2-trifluoroethyl)pyridin-2-yl)urea]
5 to 25 nM	< 5 nM	Cc1ccc(OC(F)(F)F)cc1NC(=O)N(C)C1CC2(C1)CN(C(=O)c1cnn3ccsc13)C2 [Example 151, 1-methyl-3-(2-methyl-5-(trifluoromethoxy)phenyl)-1-(2-(pyrazolo[5,1-b]thiazole-7-carbonyl)-2-azaspiro[3.3]heptan-6-yl)urea]
5 to 25 nM	< 5 nM	COc1ccc(CC(F)(F)F)cc1NC(=O)NC1CC2(C1)CN(C(=O)c1cnn3ccn(C)c13)C2 [Example 152, 1-(2-methoxy-5-(2,2,2-trifluoroethyl)phenyl)-3-(2-(1-methyl-1H-imidazo[1,2-b]pyrazole-7-carbonyl)-2-azaspiro[3.3]heptan-6-yl)urea]
< 5 nM	< 5 nM	O=C(Nc1cccc(CC(F)(F)F)c1)NC1CC2(C1)CN(C(=O)c1ccnc3[nH]ncc13)C2 [Example 153, 1-(2-(1H-pyrazolo[3,4-b]pyridine-4-carbonyl)-2-azaspiro[3.3]heptan-6-yl)-3-(3-(2,2,2-trifluoroethyl)phenyl)urea]
5 to 25 nM	< 5 nM	O=C(Nc1cc(OC(F)(F)F)ccn1)NC1CC2(C1)CN(C(=O)c1ccnc3[nH]ncc13)C2 [Example 154, 1-(2-(1H-pyrazolo[3,4-b]pyridine-4-carbonyl)-2-azaspiro[3.3]heptan-6-yl)-3-(4-(trifluoromethoxy)pyridin-2-yl)urea]
< 5 nM	< 5 nM	O=C(Nc1cccc(SC(F)(F)F)c1)NC1CC2(C1)CN(C(=O)c1ccnc3[nH]ncc13)C2 [Example 162, 1-(2-(1H-pyrazolo[3,4-b]pyridine-4-carbonyl)-2-azaspiro[3.3]heptan-6-yl)-3-(3-((trifluoromethyl)thio)phenyl)urea]
